A word on the IC50: it is the concentration that gives 50% inhibition. The low end stands for greater potency in that assay, the high end for weaker potency in that assay.

Here are results for one compound from BindingDB's records for doi:10.1021/jm960324r (1996).

SMILES strings stand for the structures.

In the assay the test system is Herpes simplex virus (HSV) ribonucleotide reductase (RR) enzyme. In words: Inhibitory effect was evaluated on Herpes simplex virus (HSV) ribonucleotide reductase (RR) enzyme.

As to `CC(C)C[C@@H](NC(=O)[C@@H](CC(=O)O)NC(=O)[C@H](CC(=O)N1CCCC1)NC(=O)[C@H](NC(=O)NC1[C@@H](C)CCC[C@@H]1C)C(C)C)C(=O)O`, the 50% inhibitory concentration (IC50) is 20 nM.
